The record followed here is PMC5428509, “Irreversible inhibition of BTK kinase by a novel highly selective inhibitor CHMFL-BTK-11 suppresses inflammatory response in rheumatoid arthritis model” (Scientific Reports, 2017).

A word on the IC50: it is the concentration that gives 50% inhibition. Read a low IC50 as inhibition by little substance.

The target in one assay is T1, PFCDPK1(P.falciparum) (Plasmodium falciparum, UniProt P62344).
T1 construct: gene CDPK1
In words: biochemical. The arrangement: KinomeScan competition binding panel (DiscoveRx), percent of control at 1 uM. The following applies: read-out: Percent Control.

The target of another assay is SRPK1 (Homo sapiens, UniProt Q96SB4). In words: biochemical. The arrangement: KinomeScan competition binding panel (DiscoveRx), percent of control at 1 uM. The following applies: read-out: Percent Control. A digest of the protocol: (§1)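 Selectivity profiled across 456 kinases/mutants by KinomeScan binding technology.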
The target in a further assay is CLK2 (Homo sapiens, UniProt P49760). In words: biochemical. The following applies: read-out: Percent Control. The arrangement: KinomeScan competition binding panel (DiscoveRx), percent of control at 1 uM. A digest of the protocol:
as §1

The next assay has as its target T2, OSR1 (Homo sapiens, UniProt O95747).
T2 construct: gene OXSR1
Put plainly: biochemical. The arrangement: KinomeScan competition binding panel (DiscoveRx), percent of control at 1 uM. The following applies: read-out: Percent Control. A digest of the protocol:
as §1

The next assay deals with T3, LZK (Homo sapiens, UniProt O43283).
T3 construct: gene MAP3K13
In words: biochemical. The arrangement: KinomeScan competition binding panel (DiscoveRx), percent of control at 1 uM. The following applies: read-out: Percent Control. A digest of the protocol: as §1

Assay [1] deals with T4, ABL1(T315I)-phosphorylated (Homo sapiens, UniProt P00519, T315I).
T4 construct: phosphorylated
Put plainly: biochemical. The arrangement: KinomeScan competition binding panel (DiscoveRx), percent of control at 1 uM. The following applies: read-out: Percent Control. A digest of the protocol: as §1

In assay [2] the target is T5, ABL1(E255K)-phosphorylated (Homo sapiens, UniProt P00519, E255K).
T5 construct: phosphorylated
In words: biochemical. The arrangement: KinomeScan competition binding panel (DiscoveRx), percent of control at 1 uM. The following applies: read-out: Percent Control. A digest of the protocol: as §1

The target in the next assay is T6, MLK1 (Homo sapiens, UniProt P80192).
T6 construct: gene MAP3K9
Put plainly: biochemical. More on the design: KinomeScan competition binding panel (DiscoveRx), percent of control at 1 uM. The following applies: read-out: Percent Control. A digest of the protocol: as §1

The next assay addresses T7, HPK1 (Homo sapiens, UniProt Q92918).
T7 construct: gene MAP4K1
In words: biochemical. More on the design: KinomeScan competition binding panel (DiscoveRx), percent of control at 1 uM. The following applies: read-out: Percent Control. A digest of the protocol: as §1

The target in a further assay is HIPK2 (Homo sapiens, UniProt Q9H2X6). Put plainly: biochemical. The arrangement: KinomeScan competition binding panel (DiscoveRx), percent of control at 1 uM. The following applies: read-out: Percent Control. A digest of the protocol: as §1
For a further assay, the target named is CASK (Homo sapiens, UniProt O14936). Put plainly: biochemical. More on the design: KinomeScan competition binding panel (DiscoveRx), percent of control at 1 uM. The following applies: read-out: Percent Control. A digest of the protocol: as §1
A further assay addresses T8, CDK4-cyclinD3 (Homo sapiens, UniProt P11802).
T8 construct: cyclinD3
In words: biochemical. More on the design: KinomeScan competition binding panel (DiscoveRx), percent of control at 1 uM. The following applies: read-out: Percent Control. A digest of the protocol:
as §1

In the next assay the target is DYRK1A (Homo sapiens, UniProt Q13627). In words: biochemical. The following applies: read-out: Percent Control. More on the design: KinomeScan competition binding panel (DiscoveRx), percent of control at 1 uM. A digest of the protocol: as §1
For another assay, the target named is PIK3CA(H1047L) (Homo sapiens, UniProt P42336, H1047L). In words: biochemical. The arrangement: KinomeScan competition binding panel (DiscoveRx), percent of control at 1 uM. The following applies: read-out: Percent Control. A digest of the protocol: as §1
Another assay deals with PDPK1 (Homo sapiens, UniProt O15530). Put plainly: biochemical. More on the design: KinomeScan competition binding panel (DiscoveRx), percent of control at 1 uM. The following applies: read-out: Percent Control. A digest of the protocol:
as §1

For the next assay, the target named is RIOK2 (Homo sapiens, UniProt Q9BVS4). Put plainly: biochemical. The following applies: read-out: Percent Control. More on the design: KinomeScan competition binding panel (DiscoveRx), percent of control at 1 uM. A digest of the protocol: as §1
In a further assay the target is T9, MEK2 (Homo sapiens, UniProt P36507).
T9 construct: gene MAP2K2
Put plainly: biochemical. The arrangement: KinomeScan competition binding panel (DiscoveRx), percent of control at 1 uM. The following applies: read-out: Percent Control. A digest of the protocol:
as §1

The target in the next assay is T10, AMPK-alpha2 (Homo sapiens, UniProt P54646).
T10 construct: gene PRKAA2
In words: biochemical. The arrangement: KinomeScan competition binding panel (DiscoveRx), percent of control at 1 uM. The following applies: read-out: Percent Control. A digest of the protocol: as §1

For assay [3], the target named is T11, BTK kinase (Bruton's tyrosine kinase) (Homo sapiens, UniProt Q06187).
T11 construct: purified BTK kinase
Put plainly: ADP-Glo biochemical kinase assay; supported by Y551 autophosphorylation of wt vs C481S BTK and KinomeScan binding.

Another assay concerns the target PKNB(M.tuberculosis) (Mycobacterium tuberculosis, UniProt P9WI81). Put plainly: biochemical. The following applies: read-out: Percent Control. More on the design: KinomeScan competition binding panel (DiscoveRx), percent of control at 1 uM.
The target of a further assay is T12, JAK3 kinase (Homo sapiens, UniProt P52333).
T12 construct: purified JAK3 kinase protein
In words: ADP-Glo biochemical kinase assay; also strong binding in KinomeScan at […]. (In ADP-Glo the light output rises with the ADP produced.)

T3 sequence (O43283 whole entry): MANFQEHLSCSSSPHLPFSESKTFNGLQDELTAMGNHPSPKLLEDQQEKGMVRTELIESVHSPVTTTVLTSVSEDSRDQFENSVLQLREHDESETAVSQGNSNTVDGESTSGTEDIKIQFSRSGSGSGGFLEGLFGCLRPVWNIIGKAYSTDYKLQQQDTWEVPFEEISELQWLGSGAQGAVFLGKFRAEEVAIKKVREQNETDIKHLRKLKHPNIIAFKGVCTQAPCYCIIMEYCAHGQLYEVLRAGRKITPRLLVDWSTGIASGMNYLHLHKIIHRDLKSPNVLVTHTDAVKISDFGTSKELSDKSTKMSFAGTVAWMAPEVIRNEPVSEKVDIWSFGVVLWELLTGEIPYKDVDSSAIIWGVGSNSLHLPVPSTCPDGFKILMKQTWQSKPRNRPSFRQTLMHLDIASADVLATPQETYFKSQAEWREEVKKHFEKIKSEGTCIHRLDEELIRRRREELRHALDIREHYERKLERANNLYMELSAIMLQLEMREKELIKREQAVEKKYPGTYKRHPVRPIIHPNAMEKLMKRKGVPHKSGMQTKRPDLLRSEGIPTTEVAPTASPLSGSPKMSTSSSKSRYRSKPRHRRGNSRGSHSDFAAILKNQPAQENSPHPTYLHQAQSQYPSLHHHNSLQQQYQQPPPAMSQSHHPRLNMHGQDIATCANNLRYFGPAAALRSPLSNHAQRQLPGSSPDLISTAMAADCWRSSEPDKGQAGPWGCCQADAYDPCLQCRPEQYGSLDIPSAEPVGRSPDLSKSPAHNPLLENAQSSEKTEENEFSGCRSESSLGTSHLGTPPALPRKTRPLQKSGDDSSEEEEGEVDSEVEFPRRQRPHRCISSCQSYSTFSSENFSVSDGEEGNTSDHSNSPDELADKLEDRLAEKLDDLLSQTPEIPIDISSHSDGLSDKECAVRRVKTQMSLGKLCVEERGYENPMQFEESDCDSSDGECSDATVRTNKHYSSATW
HIPK2, sequence (Q9H2X6 whole entry): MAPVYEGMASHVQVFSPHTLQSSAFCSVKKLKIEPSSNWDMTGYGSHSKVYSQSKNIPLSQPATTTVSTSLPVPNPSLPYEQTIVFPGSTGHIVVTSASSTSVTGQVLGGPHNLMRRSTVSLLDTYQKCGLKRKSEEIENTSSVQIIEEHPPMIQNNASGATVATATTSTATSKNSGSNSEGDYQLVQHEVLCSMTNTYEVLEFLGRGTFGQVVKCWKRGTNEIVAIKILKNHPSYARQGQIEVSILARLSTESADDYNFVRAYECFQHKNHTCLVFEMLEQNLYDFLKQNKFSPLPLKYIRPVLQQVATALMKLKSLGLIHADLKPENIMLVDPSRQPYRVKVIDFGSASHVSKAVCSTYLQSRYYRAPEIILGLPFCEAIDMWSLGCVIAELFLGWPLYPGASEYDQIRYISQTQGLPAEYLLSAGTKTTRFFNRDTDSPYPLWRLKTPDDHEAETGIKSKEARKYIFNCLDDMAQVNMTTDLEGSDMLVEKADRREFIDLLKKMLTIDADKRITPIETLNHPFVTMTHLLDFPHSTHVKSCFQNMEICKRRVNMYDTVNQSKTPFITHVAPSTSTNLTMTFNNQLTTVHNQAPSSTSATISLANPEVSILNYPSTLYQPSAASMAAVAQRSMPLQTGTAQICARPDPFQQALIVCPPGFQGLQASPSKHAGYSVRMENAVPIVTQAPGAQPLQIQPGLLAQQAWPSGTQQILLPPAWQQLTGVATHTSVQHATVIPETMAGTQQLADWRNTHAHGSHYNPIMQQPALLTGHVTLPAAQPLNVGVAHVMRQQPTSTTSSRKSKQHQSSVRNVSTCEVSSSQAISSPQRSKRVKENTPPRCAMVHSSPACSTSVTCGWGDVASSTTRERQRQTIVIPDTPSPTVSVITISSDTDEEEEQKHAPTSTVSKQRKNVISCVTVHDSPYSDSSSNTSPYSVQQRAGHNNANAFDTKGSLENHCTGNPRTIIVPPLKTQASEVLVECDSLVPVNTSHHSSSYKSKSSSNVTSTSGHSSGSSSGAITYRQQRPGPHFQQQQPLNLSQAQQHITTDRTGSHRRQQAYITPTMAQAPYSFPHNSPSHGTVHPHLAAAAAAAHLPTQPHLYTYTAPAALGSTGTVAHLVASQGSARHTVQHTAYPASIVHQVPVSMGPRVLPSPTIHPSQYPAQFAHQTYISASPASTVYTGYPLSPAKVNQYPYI
PIK3CA(H1047L), sequence (P42336 whole entry H1047L): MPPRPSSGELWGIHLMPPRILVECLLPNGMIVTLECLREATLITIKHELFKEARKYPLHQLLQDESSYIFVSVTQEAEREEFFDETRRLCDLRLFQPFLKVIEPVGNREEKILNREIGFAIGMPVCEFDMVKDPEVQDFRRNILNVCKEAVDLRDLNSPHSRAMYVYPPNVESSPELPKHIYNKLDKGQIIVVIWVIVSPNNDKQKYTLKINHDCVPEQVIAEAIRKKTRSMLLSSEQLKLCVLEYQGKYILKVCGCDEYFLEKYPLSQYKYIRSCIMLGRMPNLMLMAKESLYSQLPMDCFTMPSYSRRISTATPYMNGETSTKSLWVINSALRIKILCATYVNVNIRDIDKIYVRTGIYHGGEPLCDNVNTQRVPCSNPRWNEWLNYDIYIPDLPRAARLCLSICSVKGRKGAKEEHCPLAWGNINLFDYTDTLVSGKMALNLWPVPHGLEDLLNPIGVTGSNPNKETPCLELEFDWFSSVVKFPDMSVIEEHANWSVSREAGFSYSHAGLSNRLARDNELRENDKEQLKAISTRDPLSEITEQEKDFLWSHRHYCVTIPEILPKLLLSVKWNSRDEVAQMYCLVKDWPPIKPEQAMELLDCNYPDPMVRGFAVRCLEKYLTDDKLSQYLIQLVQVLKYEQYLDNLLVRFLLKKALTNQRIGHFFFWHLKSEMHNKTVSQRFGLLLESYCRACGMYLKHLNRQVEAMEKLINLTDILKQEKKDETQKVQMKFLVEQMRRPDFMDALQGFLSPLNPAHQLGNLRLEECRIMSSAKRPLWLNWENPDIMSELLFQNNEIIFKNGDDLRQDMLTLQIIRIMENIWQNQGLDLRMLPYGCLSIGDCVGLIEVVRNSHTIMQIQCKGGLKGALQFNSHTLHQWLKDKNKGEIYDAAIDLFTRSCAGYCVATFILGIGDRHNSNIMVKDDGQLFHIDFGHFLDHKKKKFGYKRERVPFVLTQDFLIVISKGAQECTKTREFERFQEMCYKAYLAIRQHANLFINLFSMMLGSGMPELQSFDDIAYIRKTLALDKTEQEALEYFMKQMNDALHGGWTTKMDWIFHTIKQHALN
SRPK1, sequence (Q96SB4 whole entry): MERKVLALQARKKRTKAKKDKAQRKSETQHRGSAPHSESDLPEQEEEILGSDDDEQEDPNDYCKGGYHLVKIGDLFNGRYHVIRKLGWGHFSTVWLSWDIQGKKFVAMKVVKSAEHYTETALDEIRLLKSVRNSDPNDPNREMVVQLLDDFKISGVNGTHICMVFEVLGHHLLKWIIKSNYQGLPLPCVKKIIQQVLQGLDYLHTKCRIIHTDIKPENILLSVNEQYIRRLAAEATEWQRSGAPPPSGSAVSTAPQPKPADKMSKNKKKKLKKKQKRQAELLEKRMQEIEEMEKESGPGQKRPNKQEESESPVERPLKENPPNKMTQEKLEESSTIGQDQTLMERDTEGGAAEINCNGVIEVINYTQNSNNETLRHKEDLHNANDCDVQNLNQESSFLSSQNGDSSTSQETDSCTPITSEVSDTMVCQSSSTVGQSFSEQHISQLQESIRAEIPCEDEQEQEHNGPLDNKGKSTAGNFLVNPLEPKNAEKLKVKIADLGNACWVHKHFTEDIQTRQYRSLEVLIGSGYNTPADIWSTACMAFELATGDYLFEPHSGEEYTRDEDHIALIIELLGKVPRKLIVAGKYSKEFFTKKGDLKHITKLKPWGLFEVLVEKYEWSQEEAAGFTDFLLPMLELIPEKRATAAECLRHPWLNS
PKNB(M.tuberculosis), sequence (P9WI81 whole entry): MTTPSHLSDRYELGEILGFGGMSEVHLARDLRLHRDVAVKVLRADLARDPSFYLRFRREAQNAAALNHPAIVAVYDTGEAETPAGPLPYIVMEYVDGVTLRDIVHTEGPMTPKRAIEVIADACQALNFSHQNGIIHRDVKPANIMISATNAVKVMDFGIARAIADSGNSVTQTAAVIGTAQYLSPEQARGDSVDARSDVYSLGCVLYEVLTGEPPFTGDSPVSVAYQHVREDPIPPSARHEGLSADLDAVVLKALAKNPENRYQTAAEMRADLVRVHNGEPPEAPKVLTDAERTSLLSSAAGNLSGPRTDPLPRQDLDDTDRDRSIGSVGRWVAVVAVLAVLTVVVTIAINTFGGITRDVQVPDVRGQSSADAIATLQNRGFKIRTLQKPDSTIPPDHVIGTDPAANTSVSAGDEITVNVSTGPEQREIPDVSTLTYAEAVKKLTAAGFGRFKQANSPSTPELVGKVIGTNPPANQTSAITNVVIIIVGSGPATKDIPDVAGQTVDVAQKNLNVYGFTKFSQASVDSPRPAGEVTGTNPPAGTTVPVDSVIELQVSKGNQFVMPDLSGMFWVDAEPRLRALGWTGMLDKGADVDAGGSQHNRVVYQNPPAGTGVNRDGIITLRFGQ
T9 sequence (P36507 whole entry): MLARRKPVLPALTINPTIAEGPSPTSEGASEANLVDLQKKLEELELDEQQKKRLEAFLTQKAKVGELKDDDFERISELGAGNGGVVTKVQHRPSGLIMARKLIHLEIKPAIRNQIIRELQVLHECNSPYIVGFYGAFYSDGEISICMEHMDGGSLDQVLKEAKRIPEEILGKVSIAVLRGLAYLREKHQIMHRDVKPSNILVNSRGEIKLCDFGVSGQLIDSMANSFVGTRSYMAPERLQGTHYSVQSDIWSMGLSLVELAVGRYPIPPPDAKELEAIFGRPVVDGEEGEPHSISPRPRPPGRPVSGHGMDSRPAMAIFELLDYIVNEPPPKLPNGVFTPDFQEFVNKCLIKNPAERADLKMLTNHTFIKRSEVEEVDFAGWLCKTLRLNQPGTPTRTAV

Turning to `C=CC(=O)Nc1cc(-n2c(=O)ccc3cnc4ccc(-n5cccn5)cc4c32)ccc1C` [CHMFL-BTK-11], the remaining binding at 1 µM at PFCDPK1(P.falciparum) is 97%; at SRPK1 it was 100%; on CLK2, 100%; on OSR1 it was 96%; on LZK, 100%; in [1] it was 100%. Besides, the remaining binding at 1 µM in [2] stood at 92%; on MLK1, 100%; at HPK1, 94%; on HIPK2, 96%; on CASK, 86%; on CDK4-cyclinD3, 100%. Further, the remaining binding at 1 µM is 100% on DYRK1A; 85% at PIK3CA(H1047L); 90% on PDPK1; 87% on RIOK2; 92% on MEK2; 86% on AMPK-alpha2. Moreover, the remaining binding at 1 µM on PKNB(M.tuberculosis) came out at 69%. Besides, the results for the IC50 (in assay [3]; at JAK3 kinase) were 26.8 nM and 227 nM, respectively.
